Activity calls are given as the source filed them. The rule behind the calls is not given here.

Data set [1] deals with Carbonic anhydrase 1 (Homo sapiens, UniProt P00915). The experiment in a line: Inhibition of recombinant human carbonic anhydrase 1 assessed as inhibition constant incubated for 1 hr prior to testing by phenol red based stopped-flow CO2 hydration assay.
For data set [2], the target named is Carbonic anhydrase 2 (Homo sapiens, UniProt P00918). Briefly: Inhibition of recombinant human carbonic anhydrase 2 assessed as inhibition constant incubated for 1 hr prior to testing by phenol red based stopped-flow CO2 hydration assay.
Data set [3] concerns the target Carbonic anhydrase 12 (Homo sapiens, UniProt O43570). The experiment in a line: Inhibition of recombinant human carbonic anhydrase 12 assessed as inhibition constant incubated for 1 hr prior to testing by phenol red based stopped-flow CO2 hydration assay.
The test system of data set [4] is HUVEC. The experiment in a line: Antiangiogenic activity in HUVEC cells assessed as inhibition of VEGF-induced cell proliferation at 20 uM incubated for 48 hrs by MTT assay relative to control. It counts as functional. Particulars: Homo sapiens, values are per cent of control.
Data set [5] deals with MDA-MB-468. The experiment in a line: Cytotoxicity against human MDA-MB-468 cells assessed as inhibition of cell growth incubated for 72 hrs by MTS assay. The class given is functional, cell-based. The settings on record: MDA-MB-468, 72 h. (Tetrazolium dyes change colour on reduction, which living cells bring about.)
Data set [6] can be described thus: Cytotoxicity against HEK293 cells assessed as inhibition of cell growth incubated for 72 hrs by MTS assay. The class given is toxicity, cell-based. Particulars: human.
For data set [7], the target named is Vascular endothelial growth factor receptor 2 (Homo sapiens, UniProt P35968). Briefly: Inhibition of VEGFR2 phosphorylation in VEGF-induced HUVEC cells assessed as reduction in pVEGFR2 level at 20 uM incubated for 5 mins by Western blot analysis. The class given is cell-based. Background: Immunoblotting shows a protein as a band on a membrane.
Sequence of Vascular endothelial growth factor receptor 2 (P35968 whole entry): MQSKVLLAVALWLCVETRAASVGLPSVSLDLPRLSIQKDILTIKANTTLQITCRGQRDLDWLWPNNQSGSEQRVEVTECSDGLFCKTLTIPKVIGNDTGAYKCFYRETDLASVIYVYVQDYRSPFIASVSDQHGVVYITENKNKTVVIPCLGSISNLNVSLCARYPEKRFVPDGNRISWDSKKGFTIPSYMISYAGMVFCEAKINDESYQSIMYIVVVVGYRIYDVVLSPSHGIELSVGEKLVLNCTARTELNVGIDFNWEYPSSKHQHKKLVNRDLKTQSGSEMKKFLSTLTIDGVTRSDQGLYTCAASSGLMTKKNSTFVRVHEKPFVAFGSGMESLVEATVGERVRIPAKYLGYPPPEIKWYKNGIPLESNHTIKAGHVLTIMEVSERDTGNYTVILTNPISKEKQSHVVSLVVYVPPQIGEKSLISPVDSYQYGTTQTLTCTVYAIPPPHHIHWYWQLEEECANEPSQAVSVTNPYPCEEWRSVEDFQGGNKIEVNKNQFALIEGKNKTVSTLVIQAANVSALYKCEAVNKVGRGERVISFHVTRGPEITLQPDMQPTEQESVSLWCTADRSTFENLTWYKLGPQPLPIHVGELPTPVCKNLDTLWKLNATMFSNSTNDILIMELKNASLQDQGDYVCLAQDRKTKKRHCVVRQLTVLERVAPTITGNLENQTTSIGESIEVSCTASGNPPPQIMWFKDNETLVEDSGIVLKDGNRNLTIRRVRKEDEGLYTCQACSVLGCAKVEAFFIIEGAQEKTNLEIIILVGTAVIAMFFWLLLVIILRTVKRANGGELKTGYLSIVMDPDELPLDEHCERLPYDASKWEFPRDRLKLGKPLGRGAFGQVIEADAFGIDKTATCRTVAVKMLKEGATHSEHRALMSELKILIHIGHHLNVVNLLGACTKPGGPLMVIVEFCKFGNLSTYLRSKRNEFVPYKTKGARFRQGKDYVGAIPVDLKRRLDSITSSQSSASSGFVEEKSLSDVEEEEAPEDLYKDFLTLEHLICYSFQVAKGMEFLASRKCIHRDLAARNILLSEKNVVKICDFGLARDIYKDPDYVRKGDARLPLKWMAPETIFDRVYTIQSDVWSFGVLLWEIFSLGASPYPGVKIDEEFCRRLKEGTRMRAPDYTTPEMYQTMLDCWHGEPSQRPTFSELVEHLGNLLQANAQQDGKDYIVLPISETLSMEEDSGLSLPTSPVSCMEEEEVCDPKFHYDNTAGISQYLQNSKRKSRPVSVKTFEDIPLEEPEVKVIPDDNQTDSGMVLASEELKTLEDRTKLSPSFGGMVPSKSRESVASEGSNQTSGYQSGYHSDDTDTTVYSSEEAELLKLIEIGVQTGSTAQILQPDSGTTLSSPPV
A short description of data set [8]: Selectivity index, ratio of IC50 for cytotoxicity against HEK293 cells to IC50 for cytotoxicity against human MDA-MB-468 cells. The settings on record: HEK293 cells versus MDA-MB-468 cells, read-out: Ratio IC50. The class given is toxicity, cell-based.
For data set [9], the target named is Carbonic anhydrase 9 (Homo sapiens, UniProt Q16790). The experiment in a line: Inhibition of recombinant human carbonic anhydrase 9 assessed as inhibition constant incubated for 1 hr prior to testing by phenol red based stopped-flow CO2 hydration assay.

Sequence of Carbonic anhydrase 12 (O43570 whole entry): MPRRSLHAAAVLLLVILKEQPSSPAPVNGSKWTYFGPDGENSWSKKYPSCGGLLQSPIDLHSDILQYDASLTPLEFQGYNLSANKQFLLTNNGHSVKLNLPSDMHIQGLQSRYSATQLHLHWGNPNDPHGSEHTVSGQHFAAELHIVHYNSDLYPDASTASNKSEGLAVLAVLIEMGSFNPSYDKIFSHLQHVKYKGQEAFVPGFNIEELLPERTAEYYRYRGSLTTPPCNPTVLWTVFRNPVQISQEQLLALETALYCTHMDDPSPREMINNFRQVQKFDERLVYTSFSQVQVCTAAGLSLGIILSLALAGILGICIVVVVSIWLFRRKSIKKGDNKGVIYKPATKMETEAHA
Sequence of Carbonic anhydrase 1 (P00915 whole entry): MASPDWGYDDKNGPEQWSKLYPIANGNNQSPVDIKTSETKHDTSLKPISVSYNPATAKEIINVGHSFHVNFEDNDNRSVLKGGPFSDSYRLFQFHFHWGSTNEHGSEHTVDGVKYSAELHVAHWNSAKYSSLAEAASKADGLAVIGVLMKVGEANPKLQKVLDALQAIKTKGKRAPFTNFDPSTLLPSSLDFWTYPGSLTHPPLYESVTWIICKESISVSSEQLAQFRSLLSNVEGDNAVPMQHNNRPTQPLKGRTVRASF

As usually defined, the Ki is a dissociation constant, usually derived from enzyme kinetics or from competition with a known ligand. Turning to `NS(=O)(=O)c1ccc(CCNC2=NS(=O)(=O)c3ccc(Cl)cc3N2)cc1`, the Ki in [1] was 0.0501 µM; in [2], 0.0088 µM; in [3], 0.0038 µM. For `CC(NC1=NS(=O)(=O)c2cc(Cl)ccc2N1)c1ccccc1` (centres undefined), the growth, % of control at 20 µM in data set [4] was 53.7%. Broadly, the IC50 is the concentration that inhibits the measured activity by half. Turning to `O=S1(=O)N=C(NC2CCCC2)Nc2cc(Cl)ccc21`, the growth, % of control at 20 µM in data set [4] worked out at 174%. Besides, the IC50 in data set [5] was determined as 148 µM. Regarding `CC(NC1=NS(=O)(=O)c2cc(Br)ccc2N1)c1ccccc1` (centres undefined), the growth, % of control at 20 µM in data set [4] amounted to 104%. Turning to `O=S1(=O)N=C(NCCCCc2ccccc2)Nc2ccc(Cl)cc21`, the growth, % of control at 20 µM in data set [4] turned out to be 116%. In addition, in data set [6], the IC50 at 72 h is 23.4 µM. As to `Cc1ccccc1CNC1=NS(=O)(=O)c2cc(Cl)ccc2N1`, the growth, % of control at 20 µM in data set [4] worked out at 117%.

`CCNC1=NS(=O)(=O)c2ccccc2N1`: the growth, % of control at 20 µM in data set [4] turned out to be 88.4%. As to `O=S1(=O)N=C(NCCCc2ccccc2)Nc2ccccc21`, the growth, % of control at 20 µM in data set [4] came out at 53.6%. Regarding `O=S1(=O)N=C(NCc2ccccc2)Nc2ccc(Cl)cc21`, the growth, % of control at 20 µM in data set [4] is 122%. `COc1cccc(CNC2=NS(=O)(=O)c3cc(Cl)ccc3N2)c1`: in data set [4], the growth, % of control at 20 µM was found to be 95.5%. For the same compound, the inhibition result in [7] was “Active”. Moreover, the IC50 in data set [5] is above 100 µM. In the case of `COc1ccccc1CNC1=NS(=O)(=O)c2cc(F)ccc2N1`, the growth, % of control at 20 µM in [4] was determined as 29.4%.

Turning to `O=S1(=O)NC(=S)Nc2ccc(F)cc21`, the growth, % of control at 20 µM in data set [4] is 50.1%. For `O=S1(=O)N=C(NCc2ccc(F)cc2F)Nc2ccc(Cl)cc21`, in [4], the growth, % of control at 20 µM was 133%. In addition, in data set [5], the IC50 turned out to be 45.5 µM. Also, the IC50 at 72 h in data set [6] came out at 58.9 µM. In addition, in data set [8], the selectivity ratio was 1.3. For the compound `CC1=Nc2ccc(Cl)cc2S(=O)(=O)N1` [DIAZOXIDE], the growth, % of control at 20 µM in data set [4] worked out at 15.2%. `O=S1(=O)N=C(NCCc2c[nH]c3ccccc23)Nc2cc(Cl)ccc21`: the growth, % of control at 20 µM in [4] was 34.1%. As to `O=S1(=O)N=C(NCCc2c[nH]c3ccccc23)Nc2ccc(F)cc21`, the growth, % of control at 20 µM in [4] came to 41.8%.

As to `Cc1ccccc1CNC1=NS(=O)(=O)c2ccc(Cl)cc2N1`, the growth, % of control at 20 µM in data set [4] was determined as 112%.

In the case of `O=S1(=O)N=C(NCCc2ccccc2)Nc2ccc(Cl)cc21`, the growth, % of control at 20 µM in data set [4] was 81.7%. For `O=S1(=O)N=C(NCCc2ccccc2)Nc2ccc(Br)cc21`, in data set [4], the growth, % of control at 20 µM amounted to 52.7%. For `O=S1(=O)N=C(NCc2ccc(F)cc2)Nc2ccc(Cl)cc21`, the growth, % of control at 20 µM in data set [4] was determined as 70.4%. As for `O=S1(=O)N=C(NCc2ccccc2OC(F)(F)F)Nc2cc(Cl)ccc21`, the growth, % of control at 20 µM in [4] was determined as 124%. The IC50 in data set [5] turned out to be 14.9 µM. Besides, the IC50 at 72 h in data set [6] came out at 30.5 µM. Moreover, the selectivity ratio in [8] was determined as 2. Turning to `CC(NC1=NS(=O)(=O)c2ccc(Cl)cc2N1)c1ccccc1` (centres undefined), in data set [4], the growth, % of control at 20 µM came to 40.5%. Further, the IC50 in data set [5] amounted to 91.1 µM.

Consider `O=S1(=O)N=C(NCc2ccc(OC(F)(F)F)cc2)Nc2ccccc21`, for which the growth, % of control at 20 µM in data set [4] came to 88.6%. For the same compound, the IC50 in data set [5] is 71 µM. On to `CC(C)C(C)NC1=NS(=O)(=O)c2cc(F)ccc2N1` (centres undefined), for which the growth, % of control at 20 µM in data set [4] came to 76.4%.

As for `COc1ccc(CNC2=NS(=O)(=O)c3cc(Cl)ccc3N2)cc1`, the growth, % of control at 20 µM in data set [4] came to 90.7%. The Ki in data set [1], in data set [2], in data set [9] and in [3] was above 100 µM in each case. Also, the IC50 in data set [5] amounted to 62.9 µM. `CSC1=NS(=O)(=O)c2cc(F)ccc2N1C`: in data set [4], the growth, % of control at 20 µM worked out at 70.1%. As to `COc1ccccc1CNC1=NS(=O)(=O)c2ccc(Cl)cc2N1`, in data set [4], the growth, % of control at 20 µM was 83.9%.

On to `O=S1(=O)N=C(NC2CCCC2)Nc2ccc(Cl)cc21`, for which the inhibition result in [7] was “Active”. In addition, the IC50 in data set [5] came to 77 µM. As to `O=S1(=O)N=C(NCc2ccc(F)cc2F)Nc2ccc(Br)cc21`, the growth, % of control at 20 µM in data set [4] came to 127%. As for `COc1cccc(CCNC2=NS(=O)(=O)c3ccc(Cl)cc3N2)c1`, in data set [4], the growth, % of control at 20 µM came to 103%. Regarding `O=S1(=O)N=C(NCCc2ccccc2)Nc2cc(Cl)ccc21`, in [4], the growth, % of control at 20 µM was 197%.

As to `O=S1(=O)N=C(NCCCc2ccccc2)Nc2ccc(Cl)cc21`, the growth, % of control at 20 µM in data set [4] was determined as 91.6%. Besides, the IC50 in [5] is 56.6 µM. Further, the IC50 at 72 h in [6] amounted to 30.9 µM. For the same compound, in data set [8], the selectivity ratio stood at 0.5.

For the compound `COc1cccc(CNC2=NS(=O)(=O)c3ccc(Cl)cc3N2)c1`, the growth, % of control at 20 µM in data set [4] was determined as 129%.

On to `CCCCCC(=O)c1c(O)nc(OC)c(OC)c1O`, for which, in data set [5], the IC50 turned out to be 6.71 µM. The IC50 at 72 h in [6] worked out at 25.9 µM. For the same compound, the selectivity ratio in [8] came out at 3.9. Consider `Cc1ccc(CNC2=NS(=O)(=O)c3ccc(Cl)cc3N2)cc1`, for which the growth, % of control at 20 µM in [4] amounted to 146%. For `O=S1(=O)N=C(NCCCc2ccccc2)Nc2ccc(Br)cc21`, the growth, % of control at 20 µM in data set [4] was 28.6%.

`O=S1(=O)N=C(NCCCc2ccccc2)Nc2cc(Cl)ccc21`: the growth, % of control at 20 µM in data set [4] is 175%. Further, the IC50 in [5] turned out to be 91.9 µM. In addition, the IC50 at 72 h in [6] was found to be 111 µM. Moreover, the selectivity ratio in data set [8] turned out to be 1.2. On to `O=S1(=O)N=C(NCc2ccc(C(F)(F)F)cc2)Nc2cc(Cl)ccc21`, for which the growth, % of control at 20 µM in [4] was 8.6%. For `Cc1cccc(CNC2=NS(=O)(=O)c3ccc(Cl)cc3N2)c1`, in data set [4], the growth, % of control at 20 µM was 125%. Regarding `O=S1(=O)N=C(NCc2ccc(F)cc2F)Nc2cc(Cl)ccc21`, the growth, % of control at 20 µM in data set [4] was found to be 172%. In addition, the IC50 in data set [5] turned out to be 84.6 µM. Moreover, in data set [6], the IC50 at 72 h came out at 129 µM. For the same compound, the selectivity ratio in [8] was 1.5.

Turning to `O=S1(=O)N=C(NCc2ccccc2)Nc2cc(Cl)ccc21`, the growth, % of control at 20 µM in data set [4] was 200%. Further, the IC50 in [5] was determined as 64.2 µM. The IC50 at 72 h in data set [6] is 102 µM. For the same compound, in data set [8], the selectivity ratio stood at 1.5. `CC(NC1=NS(=O)(=O)c2ccccc2N1)c1ccccc1` (centres undefined): the growth, % of control at 20 µM in data set [4] was 25.2%. Further, the inhibition entry in [7] is “Active”. For the same compound, in [5], the IC50 was 58.5 µM.

As for `COc1ccc(CNC2=NS(=O)(=O)c3ccc(Cl)cc3N2)cc1`, the growth, % of control at 20 µM in data set [4] is 132%. Regarding `O=S1(=O)N=C(NCc2ccc(OC(F)(F)F)cc2)Nc2ccc(Cl)cc21`, the growth, % of control at 20 µM in data set [4] is 120%. Moreover, in data set [5], the IC50 amounted to 43.4 µM. On to `CSC1=NS(=O)(=O)c2ccc(Cl)cc2N1`, for which the growth, % of control at 20 µM in [4] is 20.9%. Consider `COc1ccc(CCNC2=NS(=O)(=O)c3cc(F)ccc3N2)cc1`, for which the Ki in [1], in data set [2], in data set [9] and in data set [3] was above 100 µM in each case. Regarding `Cc1cccc(CNC2=NS(=O)(=O)c3cc(Cl)ccc3N2)c1`, the growth, % of control at 20 µM in [4] is 145%. Further, in data set [7], the inhibition result is “Active”. In data set [5], the IC50 was 117 µM. Consider `O=S1(=O)N=C(NCc2ccc(OC(F)(F)F)cc2)Nc2ccc(Br)cc21`, for which the growth, % of control at 20 µM in [4] came out at 127%. Further, the inhibition result in data set [7] is “Active”. Further, the Ki in data set [1], in [2], in [9] and in data set [3] was above 100 µM in each case. Moreover, the IC50 in data set [5] turned out to be 39.1 µM.

For the compound `Cc1ccc(CNC2=NS(=O)(=O)c3cc(Cl)ccc3N2)cc1`, in data set [4], the growth, % of control at 20 µM stood at 119%. Further, the IC50 in data set [5] came to 43.1 µM. Regarding `O=S1(=O)N=C(NCc2ccncc2)Nc2ccc(Cl)cc21`, in [4], the growth, % of control at 20 µM was 66.8%.

For the origin of these results see ChEMBL document CHEMBL5126581, “Chlorinated benzothiadiazines inhibit angiogenesis through suppression of VEGFR2 phosphorylation” (Bioorg Med Chem, 2022).
